Drawing on PubChem BioAssay AID463174 (Southern Research Specialized Biocontainment Screening …, 2010), this text covers inhibition and IC50 for six molecules.

The structures appear in SMILES notation. Calls of active or inactive are those of the source. No rule for the calls is given here.

Test system in the first assay: not listed separately
Put plainly: late-stage follow-up, counter-screen for PhoP regulon inhibitor project, purified and synthesized compounds, set 5 (AID 463174). As to conditions: S. Typhi promoter-GFP counter-screen, fluorescence, 4 h; at 150 µM (top of the series).
As to `Cc1ccc(C2Sc3ccccc3N=C3c4ccccc4CC32)cc1` (stereo unspecified), the inhibition was -45.3% (inactive).
For `O=C1C2=C(Nc3ccccc3SC2c2cccc(Br)c2)c2ccccc21` (stereo unspecified), the inhibition was -12.6% (inactive).
Still for that read-out and setting: next, `Clc1ccc(C2Sc3ccccc3N=C3c4ccccc4CC32)cc1` (stereo unspecified): -48.2% (inactive).
For `COc1cccc(NC(=O)N2CCCN(Cc3ccccc3F)C2)c1`, the inhibition was -3.56% (inactive).
Regarding `O=C1C2=C(Nc3ccccc3SC2c2cccnc2)c2ccccc21` (stereo unspecified), the inhibition was -32.9% (inactive).

A further assay has as its system S. Typhi promoter-GFP counter-screen, fluorescence, 4 h. The assay is described as above.
Settings: not given
As for `O=C1C2=C(Nc3ccccc3SC2c2ccc(Cl)cc2)c2ccccc21` (stereo unspecified), the IC50 was 89.6 µM.
